{"source": "patent US20060121136A1", "about": "“Hypotensive agent and method for producing same” (National Institute of Advanced Industrial Science and …, priority 2003, published 2006)", "target": "T1, angiotensin-converting enzyme (ACE) (Oryctolagus cuniculus, UniProt P12822)", "T1 construct": "purchased Wako Jun-yaku A6778 (Lot No.)", "T1 sequence (P12822 34-1310)": "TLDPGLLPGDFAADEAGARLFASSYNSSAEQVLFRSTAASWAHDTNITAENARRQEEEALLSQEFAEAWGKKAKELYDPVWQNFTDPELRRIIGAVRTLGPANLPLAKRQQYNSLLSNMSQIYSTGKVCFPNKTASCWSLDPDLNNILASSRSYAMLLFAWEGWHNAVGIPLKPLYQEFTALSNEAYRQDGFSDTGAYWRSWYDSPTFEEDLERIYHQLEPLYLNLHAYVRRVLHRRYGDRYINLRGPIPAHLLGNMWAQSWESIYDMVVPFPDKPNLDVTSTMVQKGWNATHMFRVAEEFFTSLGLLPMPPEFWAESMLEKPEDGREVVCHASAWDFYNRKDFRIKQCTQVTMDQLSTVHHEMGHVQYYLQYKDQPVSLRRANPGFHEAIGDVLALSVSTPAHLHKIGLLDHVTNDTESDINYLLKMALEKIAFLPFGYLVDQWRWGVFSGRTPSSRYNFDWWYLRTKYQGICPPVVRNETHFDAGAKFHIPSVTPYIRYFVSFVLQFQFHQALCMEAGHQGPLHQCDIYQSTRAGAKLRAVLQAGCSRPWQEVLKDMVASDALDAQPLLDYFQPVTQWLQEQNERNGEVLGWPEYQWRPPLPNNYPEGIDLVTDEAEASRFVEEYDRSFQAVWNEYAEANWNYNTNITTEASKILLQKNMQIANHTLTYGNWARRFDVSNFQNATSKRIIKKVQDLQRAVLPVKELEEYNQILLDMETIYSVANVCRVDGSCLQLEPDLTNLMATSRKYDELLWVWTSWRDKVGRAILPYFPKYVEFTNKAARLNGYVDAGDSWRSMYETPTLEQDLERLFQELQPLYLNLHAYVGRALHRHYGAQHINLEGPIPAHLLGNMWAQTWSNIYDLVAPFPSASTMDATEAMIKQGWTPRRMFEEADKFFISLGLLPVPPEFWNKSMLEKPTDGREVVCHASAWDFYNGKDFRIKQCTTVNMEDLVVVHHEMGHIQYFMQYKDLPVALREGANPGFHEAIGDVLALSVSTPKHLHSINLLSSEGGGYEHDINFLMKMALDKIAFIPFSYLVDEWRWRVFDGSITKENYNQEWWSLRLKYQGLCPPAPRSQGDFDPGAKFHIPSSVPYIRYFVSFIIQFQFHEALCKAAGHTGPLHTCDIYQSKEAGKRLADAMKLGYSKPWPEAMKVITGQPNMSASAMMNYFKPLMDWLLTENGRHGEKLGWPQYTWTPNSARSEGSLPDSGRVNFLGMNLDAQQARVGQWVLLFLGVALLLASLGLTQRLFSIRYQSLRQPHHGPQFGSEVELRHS", "test": "ACE inhibiting activity (Hip-His-Leu substrate, liberated hippuric acid OD at 228 nm)", "format": "biochemical", "description": "The blood pressure-lowering activity of the oligosaccharide for use in the invention was investigated by determining the angiotensin-converting enzyme inhibiting activity (hereinafter referred to as ACE inhibiting activity) thereof. Concretely, various oligosaccharides mentioned below were analyzed for their ACE inhibiting activity. • 1) Glc(α1-1α)Glc: α,α-trehalose (sold by Wako Jun-yaku, Lot No. KP7915), • 2) Glc(α1-1β)Glc: α,β-trehalose (sold by Sigma, Lot No. T-0299), • 3) Glc(β1-1β)Glc: β,β-trehalose (sold by Sigma, Lot No. T-0917), • 4) Glc(α1-2)Glc: kojibiose (sold by Sigma, Lot No. T-0299), • 5) Glc(β1-2)Glc: sophorose (sold by Sigma, Lot No. S-1404), • 6) Glc(α1-3)Glc: nigerose (sold by Wako Jun-yaku, Lot No. 142-06433), • 7) Glc(β1-3)Glc: laminaribiose (sold by Sigma, Lot No. L-6384), • 8) Glc(α1-4)Glc: maltose (sold by Sigma, Lot No. M-9171), • 9) Glc(β1-4)Glc: cellobiose (sold by Nacalai, Lot No. 075-11), • 10) Glc(α1-6)Glc: isomaltose (sold by Sigma, Lot No. I-7253), • 11) Glc(β1-6)Glc: gentiobiose (sold by Sigma, Lot No. G-3000), • 12) Gal(α1-6)Glc: melibiose (sold by Sigma, Lot No. M-5500), • 13) Gal(β1-6)Gal (sold by Sigma, Lot No. G-5643), • 14) Glc(α1-6) glucitol:Glc(α1-6) mannitol (=50:50) (sold by Sigma, Lot No. P8583-500), • 15) Glc(α1-6)Fru: palatinose (sold by Sigma, Lot No. M-5500), • 16) Fru(β2-1α)Glc: sucrose (sold by Wako Jun-yaku, Lot No. 192-00012), and • 17) Glc(α1-3) Fru(β2-1α) Glc: melezitose (sold by Nacalai, Lot No. 214-01). In these, Glu means glucose; Gal means galactose; and Fru means fructose.\nEach oligosaccharide as above was dissolved in water (MilliQ water). Because of the solubility thereof, the sample was dissolved to have a final concentration of 10, 30 or 100 mM at the time when its activity is determined (Table 1). Next, with cooling with ice, 30 μl of the sample (Nos. 1 to 17 in Table 1) was put into a test tube. Then, 100 μl of ACE (sold by Wako Jun-yaku, Lot No. A6778) in a borate buffer (60 mU/ml) (pH 8.3) was added to each sample. As a blank, one also added with 250 μl of 1 N HCl serving as a reaction stopper was prepared. These were pre-incubated at 37° C. for 5 minutes. Further, 250 μl of a borate buffer (pH 8.3) containing as a substrate, 7.6 mM Hip-His-Leu (sold by Sigma, Lot No. 012-02195) and 608 mM sodium chloride (sold by Wako Jun-yaku, Lot No. 191-01665) was added. These were reacted at 37° C. for 30 minutes. Then, 250 μl of 1 NHCl was added and stirred, and the reaction was stopped. Then, 1.5 ml of ethyl acetate (sold by Wako Jun-yaku, Lot No. 051-00356) was added, and the thus-liberated hippuric acid was extracted out. After thus extracted, it was centrifuged at 3000 rpm for 10 minutes, and 0.5 ml of the supernatant (ethyl acetate layer)was recovered. The thus-recovered ethyl acetate was removed under reduced pressure, and 4 ml of water was added and stirred. The absorption of the dissolved hippuric acid at 228 nm (OD) was measured. The borate buffer used herein was prepared from Na2B4O7 (sold by Wako Jun-yaku, Lot No. 194-01415) and H3BO3 (sold by Wako Jun-yaku, Lot No. 012-02195) so that its pH could be 8.3. The data obtained were computed according to the calculation formula mentioned below, and the ACE inhibiting activity (%) of each sample was obtained as in Table 1 and FIG. 1. ACE Inhibiting Activity (%)={[(solvent OD−solvent blank OD)−(sample OD−sample blank OD)]/(solvent OD−solvent blank OD)}×100.", "key": {"[1]": {"conditions": "final sample concentration 100 mM"}, "[2]": {"conditions": "final sample concentration 30 mM"}, "[3]": {"conditions": "final sample concentration 10 mM"}}}
{"compound": "OC[C@H]1O[C@H](O[C@H]2[C@H](O)[C@@H](O)C(O)O[C@@H]2CO)[C@H](O)[C@@H](O)[C@@H]1O", "note": "(mixture of isomers) [compound 8, maltose]", "values": [{"measurement": "inhibition at 100000 µM", "setting": "[1]", "result": 6.3, "unit": "%"}]}
{"compound": "OC[C@H]1O[C@H](O[C@H]2O[C@H](CO)[C@@H](O)[C@H](O)[C@H]2O)[C@H](O)[C@@H](O)[C@@H]1O", "note": "[compound 1, α,α-trehalose]", "values": [{"measurement": "ACE Inhibiting Activity (%)", "setting": "[2]", "result": 1.2, "unit": "%"}]}
{"compound": "OC[C@H]1O[C@@H](O[C@H]2O[C@H](CO)[C@@H](O)[C@H](O)[C@H]2O)[C@H](O)[C@@H](O)[C@@H]1O", "note": "[compound 2, α,β-trehalose]", "values": [{"measurement": "ACE Inhibiting Activity (%)", "setting": "[2]", "result": 1.6, "unit": "%"}]}
{"compound": "OC[C@H]1O[C@@H](O[C@@H]2O[C@H](CO)[C@@H](O)[C@H](O)[C@H]2O)[C@H](O)[C@@H](O)[C@@H]1O", "note": "[compound 3, β,β-trehalose]", "values": [{"measurement": "ACE Inhibiting Activity (%)", "setting": "[2]", "result": 0.6, "unit": "%"}]}
{"compound": "OC[C@H]1O[C@H](O[C@H]2C(O)O[C@H](CO)[C@@H](O)[C@@H]2O)[C@H](O)[C@@H](O)[C@@H]1O", "note": "(stereo partly shown) [compound 4, kojibiose]", "values": [{"measurement": "ACE Inhibiting Activity (%)", "setting": "[3]", "result": 1.0, "unit": "%"}]}
{"compound": "OC[C@H]1O[C@@H](O[C@H]2C(O)O[C@H](CO)[C@@H](O)[C@@H]2O)[C@H](O)[C@@H](O)[C@@H]1O", "note": "(stereo partly shown) [compound 5, sophorose]", "values": [{"measurement": "ACE Inhibiting Activity (%)", "setting": "[2]", "result": 3.0, "unit": "%"}]}
{"compound": "OC[C@H]1O[C@H](O[C@H]2[C@H](O)[C@@H](CO)OC(O)[C@@H]2O)[C@H](O)[C@@H](O)[C@@H]1O", "note": "(stereo partly shown) [compound 6, nigerose]", "values": [{"measurement": "ACE Inhibiting Activity (%)", "setting": "[3]", "result": 0.4, "unit": "%"}]}
{"compound": "OC[C@H]1O[C@@H](O[C@H]2[C@H](O)[C@@H](CO)OC(O)[C@@H]2O)[C@H](O)[C@@H](O)[C@@H]1O", "note": "(stereo partly shown) [compound 7, laminaribiose]", "values": [{"measurement": "ACE Inhibiting Activity (%)", "setting": "[2]", "result": 0.8, "unit": "%"}]}
{"compound": "O=C[C@H](O)[C@@H](O)[C@H](O[C@@H]1O[C@H](CO)[C@@H](O)[C@H](O)[C@H]1O)[C@H](O)CO", "note": "[compound 9, cellobiose]", "values": [{"measurement": "inhibition at 30000 µM", "setting": "[2]", "result": -1, "unit": "%"}]}
{"compound": "OC[C@H]1O[C@H](OC[C@H]2OC(O)[C@H](O)[C@@H](O)[C@@H]2O)[C@H](O)[C@@H](O)[C@@H]1O", "note": "(stereo partly shown) [compound 10, isomaltose]", "values": [{"measurement": "ACE Inhibiting Activity (%)", "setting": "[1]", "result": 27.2, "unit": "%"}]}
{"compound": "OC[C@H]1O[C@H](OCC2O[C@@H](O)[C@H](O)[C@@H](O)[C@@H]2O)[C@H](O)[C@@H](O)[C@H]1O", "note": "(stereo partly shown) [compound 12, melibiose]", "values": [{"measurement": "ACE Inhibiting Activity (%)", "setting": "[1]", "result": 40.7, "unit": "%"}]}
{"compound": "OC[C@H]1O[C@@H](OC[C@H]2OC(O)[C@H](O)[C@@H](O)[C@H]2O)[C@H](O)[C@@H](O)[C@H]1O", "note": "(stereo partly drawn) [compound 13, Gal(β1-6)Gal]", "values": [{"measurement": "ACE Inhibiting Activity (%)", "setting": "[1]", "result": 54.9, "unit": "%"}]}
{"compound": "OC[C@H]1O[C@H](OC[C@H]2OC(O)(CO)[C@@H](O)[C@@H]2O)[C@H](O)[C@@H](O)[C@@H]1O", "note": "(stereo partly shown) [compound 15, palatinose]", "values": [{"measurement": "ACE Inhibiting Activity (%)", "setting": "[1]", "result": 93.5, "unit": "%"}]}
{"compound": "OC[C@H]1O[C@@](CO)(O[C@H]2O[C@H](CO)[C@@H](O)[C@H](O)[C@H]2O)[C@@H](O)[C@@H]1O", "note": "[compound 16, sucrose]", "values": [{"measurement": "inhibition at 30000 µM", "setting": "[2]", "result": 6.6, "unit": "%"}]}
{"compound": "OC[C@H]1O[C@@](CO)(O[C@H]2O[C@H](CO)[C@@H](O)[C@H](O)[C@H]2O)[C@@H](O[C@H]2O[C@H](CO)[C@@H](O)[C@H](O)[C@H]2O)[C@@H]1O", "note": "[compound 17, melezitose]", "values": [{"measurement": "inhibition at 30000 µM", "setting": "[2]", "result": 5.5, "unit": "%"}]}
{"compound": "gentiobiose [compound 11]", "values": [{"measurement": "ACE Inhibiting Activity (%)", "setting": "[1]", "result": 31.5, "unit": "%"}]}
